Measurements reported in patent US7049341B2, “N-benzoylureidocinnamic acid derivatives, processes for preparing them and their use” (Aventis Pharma Deutschland GmbH, priority 2002, dated 2006).

Molecular target: T1, Human glycogen phosphorylase a (Homo sapiens, UniProt P06737)
T1 sequence (P06737 1-847): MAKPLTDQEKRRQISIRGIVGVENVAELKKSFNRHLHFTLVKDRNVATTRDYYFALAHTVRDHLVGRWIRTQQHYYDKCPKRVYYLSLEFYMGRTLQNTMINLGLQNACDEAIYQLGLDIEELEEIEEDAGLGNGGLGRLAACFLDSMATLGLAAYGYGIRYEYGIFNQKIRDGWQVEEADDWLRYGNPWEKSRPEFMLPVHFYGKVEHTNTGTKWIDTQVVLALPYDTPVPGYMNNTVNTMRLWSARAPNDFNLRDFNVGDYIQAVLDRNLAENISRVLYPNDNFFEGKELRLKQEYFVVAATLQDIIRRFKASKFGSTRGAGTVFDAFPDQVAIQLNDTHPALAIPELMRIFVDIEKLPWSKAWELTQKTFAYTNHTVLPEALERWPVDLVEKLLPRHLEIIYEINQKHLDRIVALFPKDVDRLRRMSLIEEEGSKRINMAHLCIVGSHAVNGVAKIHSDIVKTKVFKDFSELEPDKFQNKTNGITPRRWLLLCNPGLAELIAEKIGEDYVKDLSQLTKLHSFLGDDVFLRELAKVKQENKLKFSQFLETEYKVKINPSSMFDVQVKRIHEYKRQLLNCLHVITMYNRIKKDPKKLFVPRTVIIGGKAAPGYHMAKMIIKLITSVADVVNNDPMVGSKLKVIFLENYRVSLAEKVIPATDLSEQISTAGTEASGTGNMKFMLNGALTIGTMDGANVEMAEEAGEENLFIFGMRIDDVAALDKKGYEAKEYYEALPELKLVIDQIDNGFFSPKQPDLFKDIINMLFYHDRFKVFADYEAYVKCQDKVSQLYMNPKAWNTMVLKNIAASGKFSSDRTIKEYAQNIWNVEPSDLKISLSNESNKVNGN
Experiment: Glycogen phosphorylase a activity test (reverse direction, release of inorganic phosphate)
Assay type: biochemical
Conditions: 10 μM concentration of the test substance; in vitro, duplicate determinations
Protocol: Glycogen Phosphorylase a Activity Test
The effect of compounds on the activity of the active form of glycogen phosphorylase (GPa) was measured in the reverse direction by monitoring the synthesis of glycogen from glucose 1-phosphate by determining the release of inorganic phosphate. All the reactions were carried out as duplicate determinations in 96-well microtiter plates (Half Area Plates, Costar No. 3696), with the change in absorption due to the formation of the reaction product being measured, at the wavelength specified below, in a Multiscan Ascent Elisa Reader (Lab Systems, Finland). In order to measure the enzymic activity of GPa in the reverse direction, the conversion of glucose 1-phosphate into glycogen and inorganic phosphate was measured in accordance with the general method of Engers et al. (Engers H D, Shechosky S, Madsen N B, Can J Biochem 1970 July;48(7): 746–754) but with the following modifications: Human glycogen phosphorylase a (for example containing 0.76 mg of protein/ml (Aventis Pharma Deutschland GmbH), dissolved in buffer solution E (25 mM β-glycerophosphate, pH 7.0, 1 mM EDTA and 1 mM dithiothreitol), was diluted with buffer T (50 mM Hepes, pH 7.0, 100 mM KCl, 2.5 mM EDTA, 2.5 mM MgCl2.6H2O), and addition of 5 mg of glycogen/ml, to a concentration of 10 μg of protein/ml. Test substances were prepared as a 10 mM solution in DMSO and diluted down to 50 μM with buffer solution T. 10 μl of 37.5 mM glucose, dissolved in buffer solution T and 5 mg/ml of glycogen, and also 10 μl of a solution of human glycogen phosphorylase a (10 μg of protein/ml) and 20 μl of glucose 1-phosphate, 2.5 mM, were added to […] of the solution. The basal value of the activity of the glycogen phosphorylase a in the absence of test substance was determined by adding 10 μl of buffer solution T (0.1% DMSO). The mixture was incubated at room temperature for 40 minutes and the inorganic phosphate which was released was measured using the general method of Drueckes et al. (Drueckes P, Schinzel R, Palm D, Anal Biochem 1995 Sep. 1;230(1):173–177) but with the following modifications: 50 μl of a stop solution of 7.3 mM ammonium molybdate, 10.9 mM zinc acetate, 3.6% ascorbic acid, 0.9% SDS are added to 50 μl of the enzyme mixture. After 60 minutes of incubation at 45° C., the absorption was measured at 820 nm. In order to determine the background absorption, the stop solution was added immediately after adding the glucose 1-phosphate solution in a separate assay. This test was carried out using a 10 μM concentration of the test substance in order to determine the respective inhibition of glycogen phosphorylase a by the test substance in vitro.

Compound | inhibition at 10 µM [%]
CC(=O)Nc1ccc(C=CC(=O)O)c(NC(=O)NC(=O)c2cc(F)c(F)cc2Cl)c1 [Example 3, 3-{4-Acetylamino-2-[3-(2-chloro-4,5-difluorobenzoyl)ureido]phenyl}acrylic acid] | 95
COC(=O)C=Cc1cc(C(=O)O)ccc1NC(=O)NC(=O)c1cc(F)c(F)cc1Cl [Example 7, 4-[3-(2-chloro-4,5-difluorobenzoyl)ureido]-3-(2-methoxycarbonylvinyl)benzoic acid] | 96
O=C(O)C=Cc1ccccc1NC(=O)NC(=O)c1cc(F)c(F)cc1Cl [Example 2, 3-{2-[3-(2-chloro-4,5-difluorobenzoyl)ureido]phenyl}acrylic acid] | 101
COC(=O)C=Cc1cc(C(=O)OC)ccc1NC(=O)NC(=O)c1cc(F)c(F)cc1Cl [Example 11, Methyl 4-[3-(2-chloro-4,5-difluorobenzoyl)ureido]-3-(2-methoxycarbonylvinyl)benzoate] | 91
